Measured values as given in ChEMBL document CHEMBL5724796, “Tm Shift (DSF) assay results for EUbOPEN Chemogenomics Library” (2024).
Several values for one entry are separate records, joined by “and”; a condition that tells them apart may be missing. Identical values can stand only once. Residues, ends and D or L forms follow the SMILES beside them. *: point of attachment. Boc = CC(C)(C)OC(=O)*; CH2Cl = ClC*

Columns and labels:
[1] = molecular target: T1, Peregrin (Homo sapiens) (UniProt P55201); conditions: Compound concentration 20.0 uM
T1 sequence (whole entry): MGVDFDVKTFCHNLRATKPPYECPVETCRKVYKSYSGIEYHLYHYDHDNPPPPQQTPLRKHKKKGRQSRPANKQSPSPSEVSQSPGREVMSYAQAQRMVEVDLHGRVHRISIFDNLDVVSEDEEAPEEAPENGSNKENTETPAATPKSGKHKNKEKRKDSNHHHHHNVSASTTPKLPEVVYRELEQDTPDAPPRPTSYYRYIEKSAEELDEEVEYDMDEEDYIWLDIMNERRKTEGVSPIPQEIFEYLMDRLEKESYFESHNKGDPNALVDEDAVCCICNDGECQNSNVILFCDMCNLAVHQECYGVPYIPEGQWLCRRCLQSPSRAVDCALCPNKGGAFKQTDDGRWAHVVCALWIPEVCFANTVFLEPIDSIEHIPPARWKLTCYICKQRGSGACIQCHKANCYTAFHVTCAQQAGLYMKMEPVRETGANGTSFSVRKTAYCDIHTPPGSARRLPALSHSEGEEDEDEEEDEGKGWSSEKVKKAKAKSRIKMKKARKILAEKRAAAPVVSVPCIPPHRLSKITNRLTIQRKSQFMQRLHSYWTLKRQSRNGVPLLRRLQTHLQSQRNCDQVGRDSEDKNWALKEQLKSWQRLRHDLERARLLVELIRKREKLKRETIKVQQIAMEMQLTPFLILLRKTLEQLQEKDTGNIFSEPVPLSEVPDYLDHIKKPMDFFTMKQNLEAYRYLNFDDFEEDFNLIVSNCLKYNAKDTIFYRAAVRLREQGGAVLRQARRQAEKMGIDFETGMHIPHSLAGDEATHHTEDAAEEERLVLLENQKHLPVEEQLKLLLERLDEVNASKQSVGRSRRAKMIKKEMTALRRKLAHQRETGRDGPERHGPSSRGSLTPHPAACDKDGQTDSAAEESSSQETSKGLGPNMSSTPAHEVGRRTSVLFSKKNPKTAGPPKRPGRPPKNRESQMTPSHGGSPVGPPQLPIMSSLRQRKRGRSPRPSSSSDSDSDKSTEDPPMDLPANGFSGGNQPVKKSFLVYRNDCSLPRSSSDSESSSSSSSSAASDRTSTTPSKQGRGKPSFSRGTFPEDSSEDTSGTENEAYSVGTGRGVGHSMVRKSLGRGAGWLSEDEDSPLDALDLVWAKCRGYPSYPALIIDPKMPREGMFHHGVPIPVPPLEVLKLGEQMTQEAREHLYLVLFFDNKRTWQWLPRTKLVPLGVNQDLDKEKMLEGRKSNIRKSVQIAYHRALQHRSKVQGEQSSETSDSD

[2] = molecular target: Fibroblast growth factor receptor 2 (Homo sapiens) (UniProt P21802); conditions: Compound concentration 20.0 uM
Sequence of Fibroblast growth factor receptor 2 (Homo sapiens) (P21802 22-821 limits assumed): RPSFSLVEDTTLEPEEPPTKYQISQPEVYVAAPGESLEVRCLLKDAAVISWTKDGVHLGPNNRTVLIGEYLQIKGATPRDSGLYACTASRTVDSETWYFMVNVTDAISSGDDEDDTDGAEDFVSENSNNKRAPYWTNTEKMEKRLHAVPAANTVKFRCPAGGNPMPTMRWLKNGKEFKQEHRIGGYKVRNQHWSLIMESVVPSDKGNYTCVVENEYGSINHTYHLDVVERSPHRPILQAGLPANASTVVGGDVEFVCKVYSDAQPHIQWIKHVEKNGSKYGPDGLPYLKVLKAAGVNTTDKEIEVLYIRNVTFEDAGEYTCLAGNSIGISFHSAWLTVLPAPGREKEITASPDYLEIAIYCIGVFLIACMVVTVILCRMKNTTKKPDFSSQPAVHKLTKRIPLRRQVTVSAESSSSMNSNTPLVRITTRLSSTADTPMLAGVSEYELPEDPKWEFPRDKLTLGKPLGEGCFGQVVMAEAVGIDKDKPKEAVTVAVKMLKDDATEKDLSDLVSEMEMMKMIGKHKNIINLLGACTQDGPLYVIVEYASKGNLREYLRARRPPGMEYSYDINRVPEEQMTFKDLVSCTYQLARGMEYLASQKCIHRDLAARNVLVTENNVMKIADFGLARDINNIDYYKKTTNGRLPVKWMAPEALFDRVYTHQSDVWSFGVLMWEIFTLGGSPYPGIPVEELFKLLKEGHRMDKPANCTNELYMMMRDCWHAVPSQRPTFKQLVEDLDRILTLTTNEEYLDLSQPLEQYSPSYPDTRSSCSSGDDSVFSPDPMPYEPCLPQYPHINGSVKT

SMILES	ΔTm [1]	ΔTm [2]
N[C@@H](CC(=O)Nc1ccc(Oc2cc(F)c(F)cc2Br)cc1)C(=O)O	0.59 °C	-0.01 °C
Nc1ccccc1NC(=O)CCCCCC(=O)Nc1ccccc1	-1.41 °C	0.58 °C
COCc1nc2cnc3cc(-c4c(C)noc4C)c(OC[C@H]4CCNC4)cc3c2n1[C@H](C)c1ccccc1	0.65 °C	0.01 °C
CCCCNc1cc(C(=O)O)cc(S(N)(=O)=O)c1Oc1ccccc1	0.81 °C	-0.15 °C
O=C(NCCc1cc(C(=O)NO)no1)c1ccc(Cl)c(Cl)c1	-1.25 °C	0.8 °C
O=C(NCCCc1ccccc1)c1cccc(-c2cc(O)c3ncccc3c2)c1	3.29 °C	0.19 °C
Cc1nc2ccccn2c1C(=O)CN1CCN(c2ccc(F)cn2)CC1	0.49 °C	-0.08 °C
COc1ccc(N2CCN(C(=O)c3cc4c(s3)-c3ccccc3S(=O)(=O)C4)CC2)cc1	0 °C	0.24 °C
N#Cc1c(N)[nH]c2cc(/C=C/c3cccc(F)c3)ccc12	6.38 °C	1.59 °C
NS(=O)(=O)OC[C@H]1C[C@@H](Nc2ncncc2C(=O)c2ccn(Cc3cccc(Br)c3)n2)C[C@@H]1O	1.11 °C	-0.38 °C
Cc1cc(N2C[C@@H](C)N[C@@H](C)C2)ncc1-c1ccc(-c2nc3c(ccn3C)c(=O)[nH]2)cc1	2.61 °C	0.8 °C
CCCCCCNC(=O)n1cc(Cl)c(=O)n(C(=O)OCC(C)C)c1=O	0.68 °C	0.1 °C
O=C(NO)C(c1ccc(-c2ncc(C(F)(F)F)cn2)cc1)c1ccccc1F (centres undefined)	-0.82 °C	-0.81 °C
CCCOc1cccc(Oc2cc3c(cc2NS(=O)(=O)c2cccc(C(=O)NCCOCCOCCOCC(=O)N[C@H](C(=O)N4C[C@H](O)C[C@H]4C(=O)NCc4ccc(-c5scnc5C)cc4)C(C)(C)C)c2)n(C)c(=O)n3C)c1	1.17 °C	-3.12 °C
CC(=O)O[C@]1(C(C)=O)CC[C@H]2[C@@H]3C=C(Cl)C4=CC(=O)[C@@H]5C[C@@H]5[C@]4(C)[C@H]3CC[C@@]21C	-1.28 °C	0.57 °C
CCCCCCCCCCCCCC(=S)NCCCC[C@H](NC(=O)OCc1ccccc1)C(=O)Nc1ccccc1	3.33 °C	0.84 °C
Cc1nnn(C)c1-c1cnc2c3cc4cnn(C)c4cc3n([C@H](c3ccccc3)C3CCOCC3)c2c1	-0.09 °C	-0.32 °C
O=C(c1cc(Cc2n[nH]c(=O)c3ccccc23)ccc1F)N1CCN(C(=O)C2CC2)CC1	0.96 °C	-0.16 °C
Cc1cc(Cl)cc(-c2c3sc(CN4C(=O)C5C(C4=O)C5(C)C)cc3nn2C)c1OC1CCNCC1 (centres undefined)	0.52 °C	-0.72 °C
COc1ccc(/C=C/C(=O)NO)c(-c2ccc(-c3ccccc3)cc2)c1	-5.43 °C	-5.03 °C
CCOC(=O)c1ccc(-c2ccc(OC(=O)N(C)Cc3cccc(-c4ccncc4)c3)cc2)cc1	3.12 °C	-0.28 °C

SMILES	ΔTm [1]	ΔTm [2]
CCCOc1cc(OCCCCN(C)C)cc(Oc2cc3c(cc2NS(=O)(=O)c2ccc(OC)c(OC)c2)n(C)c(=O)n3C)c1	9.12 °C	0.62 °C
Cn1c(NCCN(CCO)CCCc2ccc([N+](=O)[O-])cc2)cc(=O)n(C)c1=O	1.28 °C	0.47 °C
CCN1C(C)(C)CC(Oc2ccc(C(=O)Nc3ccc(NC(=O)Nc4cc(C(C)(C)C)on4)cc3)nc2)CC1(C)C	-1.03 °C	-2 °C
Cc1nn2c(nc(O)c3cccnc32)c1C#N	0.03 °C	-0.24 °C
CC(C)Nc1cc(-c2c[nH]c(C(=O)N[C@H](CO)c3cccc(Cl)c3)c2)c(Cl)cn1	0.61 °C	0.33 °C
CCCC(NC(=O)C(CC(C)C)NC(=O)OCc1ccccc1)C(=O)C(=O)NCc1ccccn1 (racemic)	-1.7 °C	0.15 °C
Cc1c(NC(=O)c2cc(C(N)=O)nc3cc(F)ccc23)c(C(F)(F)F)nn1Cc1ccc(C#N)cc1	0.94 °C	0.32 °C
CCc1nc2c(C)cc(N3CCN(CC(=O)N4CC(O)C4)CC3)cn2c1N(C)c1nc(-c2ccc(F)cc2)c(C#N)s1	-0.12 °C	0.26 °C
CN(CC[C@@H](Oc1ccc(-c2ccccc2)cc1)c1ccc(F)cc1)CC(=O)O	-0.36 °C	0.18 °C
CCN(C(=O)c1cc(F)ccc1Oc1cncnc1N1CC2(CCN(C[C@H]3CC[C@H](NS(=O)(=O)CC)CC3)CC2)C1)C(C)C	0.45 °C	0.21 °C
Cc1cc(/N=N/c2ccc3c(c2)CCC(=O)N3)c(N)cc1O	1.01 °C	0.16 °C
C[C@H](Nc1nc2c(cnn2C2CCCC2)c(=O)[nH]1)c1ccc(Cl)cc1	1.99 °C	0.2 °C
CC(=O)N[C@@H](Cc1ccccc1)C(=O)N[C@@H](CC(C)C)C(=O)N[C@H](C(=O)N[C@@H](CC(=O)O)C(=O)CCl)[C@@H](C)O (Ac-FLTD-CH2Cl)	-1.18 °C	0.77 °C
Cc1ccc(C)c(-n2sc3cc(F)ccc3c2=O)c1	-11.8 °C	-0.26 °C
CCC1CCCCN1C(=O)n1ncc(C(O)(c2ccccc2)c2ccccc2)n1 (centres undefined)	-0.98 °C	-0.25 °C
CC(C)c1cnc(CSc2cnc(NC(=O)C3CCNCC3)s2)o1	-1.67 °C	0.73 °C
Cc1cc(-c2ccccc2)cc(C(=O)NNS(=O)(=O)c2ccccc2)c1F	-1.3 °C	0 °C
CN(C)CCCNC(=O)c1ccc(-c2cc(O)c3ncccc3c2)cc1	-1.48 °C	0.49 °C
CC(C)(Sc1ccncc1-c1ccc(C#N)c2ccccc12)C(=O)O	0.05 °C	0.42 °C
CC(C)[C@H](NC(=O)[C@H](CCC(=O)O)NC(=O)[C@H](C)NC(=O)OC(C)(C)C)C(=O)N[C@H](C=O)CC(=O)O (Boc-AEVD-aldehyde)	-1.27 °C	0.45 °C
CC#CCn1c(N2CCC[C@@H](N)C2)nc2c1c(=O)n(Cc1nc(C)c3ccccc3n1)c(=O)n2C	0.04 °C	0.28 °C

SMILES	ΔTm [1]	ΔTm [2]
Cc1cccc(Nc2ccncc2S(=O)(=O)NC(=O)NC(C)C)c1	0.33 °C	-0.51 °C
CNc1ncc2cc(-c3cc(NC(=O)NCCC(C)(C)C)c(F)cc3C)c(C)nc2n1	-0.16 °C	5.58 °C
COC(=O)C[C@@H]1N=C(c2ccc(Cl)cc2)c2c(sc(C)c2C)-n2c(C)nnc21	-0.95 °C	0.53 °C
N#Cc1cc2cc(CN3CCC(Nc4ncnc5sc(CC(F)(F)F)cc45)CC3)ccc2[nH]1	1.21 °C	0.16 °C
C[C@@H](Oc1ccc(CNC(=O)c2cccnc2Oc2ccc3c(c2)OCO3)c(F)c1)C(=O)O	3.08 °C	0.14 °C
CN(C)Cc1ccc(-c2nc3cccc4c3n2CCNC4=O)cc1	0.88 °C	0.73 °C
Cc1n[nH]c(C)c1Cc1sc2c(c1C(=O)N1C[C@H](O)CO1)c(=O)n(C)c(=O)n2CC(C)C	2.27 °C	0.22 °C
CC(=O)Nc1ccc(-c2cc(-c3ccccc3)nc3cc(C(=O)NCCCn4ccnc4)nn23)cc1	-0.4 °C	0.21 °C
NCCOCCOCCNC(=O)Cc1ccc(Nc2nc(NCc3ccc(F)cc3)nc(NCC3CCCCC3)n2)cc1	2.13 °C	0.03 °C
CC(C)(O)c1ccc(N2Cc3c(ccnc3-c3ccc(F)cc3OCC(F)(F)F)C2=O)cc1	-1.27 °C	-4.87 °C
CCO/N=C1\c2ccccc2-c2nc(C#N)c(C#N)nc21	2.55 °C and 0.36 °C	0.21 °C and 0.32 °C
O=C(NC1CCC1)c1ccc2nc(-c3cccc(NS(=O)(=O)NCCN4CCCCC4)c3)cn2c1	1.25 °C	-0.11 °C
CCCOC(=O)N1CCN(C(=O)c2ccc3c(Cl)cc(-c4ccc(C5(N)CC5)cc4)nc3c2)C[C@H]1C	-1.27 °C	-0.58 °C
CS(=O)(=O)Nc1ccc(-c2coc3cc(OCc4cccc(C(=O)O)c4)ccc3c2=O)cc1	1.08 °C	-0.06 °C
O=C(C1CC1)N1CC[C@@H](Cc2n[nH]c(=O)n2-c2ccc(-c3ccc4occc4c3)cc2)C1	-1.32 °C and 0.92 °C	0.63 °C and -0.68 °C
COc1ccccc1S(=O)(=O)Nc1ccc2c(c1)CN(C)C(=O)N2	1.9 °C	-0.59 °C
CC1(C)c2cccc(C(=O)NO)c2CN1c1cnc(C(F)(F)F)cn1	0.66 °C	0.83 °C
O=C(CN1CCN(c2ccc(F)cn2)CC1)Nc1nc2c(s1)CCCC2	2.63 °C	-0.21 °C
N=C(N)SCc1ccc(CN2C(=O)C(=O)c3cc(C(F)(F)F)ccc32)cc1	0.27 °C	0.77 °C
Oc1ccc(-c2c(-c3ccccc3)nn3c(C(F)(F)F)cc(C(F)(F)F)nc23)cc1	-1.38 °C	1.15 °C
